Measurements from US11395857B2, “Radiolabeled melanocortin 1 receptor-specific alpha-melanocyte-stimulating hormone analogues for imaging or therapy” (PROVINCIAL HEALTH SERVICES AUTHORITY, priority 2018, dated 2022).

Key:
[1] = system: SK-MEL-1 human melanoma; assay: Radioligand therapy of SK-MEL-1 human melanoma-bearing mice; type: in vivo, NRG mice; conditions: radiotherapy group, 26.7±3.6 MBq/mouse
Experimental: For radioligand therapy, SK-MEL-1 human melanoma-bearing mice were injected with saline (control group, n=5), non-radioactive lutetium coupled CCZ01158 (cold std, n=4), and [^177Lu]Lu-CCZ01158 (26.7±3.6 MBq/mouse, n=4). Tumour size and body weight were measured every 2-4 days from the date of injection. Endpoint was defined as >15% weight loss, ulceration of tumours, or tumour volume >1000 mm^3 (Volume=width×width×length/2, measured with calliper). […] This confirms the effectiveness of the ^177Lu radiotherapy with CCZ01158 as the melanoma targeting molecule. […] All mice were euthanized when the tumours reached over 1000 mm^3, except for one mouse due to weight loss in the saline group, and one mouse due to tumour ulceration in the cold std group.

[2] = in vivo; conditions: male, NRG (NOD.Cg-Rag1tm1Mom Il2rgtm1Wjl/SzJ), mouse, total radioactivity
Experimental: (§1) The SK-MEL-1 human melanoma cell line (HTB-67) was obtained commercially from ATCC. SK-MEL-1 cells were cultured in Eagle's Minimum Essential Medium (StemCell Technologies) under the same conditions as described in Example 1. Immunodeficient NOD.Cg-Rag1tm1Mom I12rgtm1Wjl/SzJ (NRG) male mice were obtained from an in-house breeding colony at the BC Cancer Research Centre. For tumor implantation, male NRG mice were anesthetized by inhalation with 2% isoflurane, and 5 million SK-MEL-1 cells were inoculated subcutaneously on the right dorsal flank. Mice were used for imaging or biodistribution studies when the tumors reached 6-8 mm in diameter in 16-20 days.
(§2) Biodistribution studies were performed as described in Example 3.

[3] = system: SK-MEL-1 human melanoma; assay: Biodistribution of 177Lu-labeled αMSH analogues in mice bearing SK-MEL-1 human melanoma; conditions: compared to the other two analogues
Experimental: as §1, §2

[4] = as above; conditions: male, mouse, total radioactivity
Experimental: as §1, §2

[5] = NRG (NOD.Cg-Rag1tm1Mom I12rgtm1Wjl/SzJ), fat, iv
[6] = NRG (NOD.Cg-Rag1tm1Mom I12rgtm1Wjl/SzJ), seminal glands, iv
[7] = NRG (NOD.Cg-Rag1tm1Mom Il2rgtm1Wjl/SzJ), SK-MEL-1 tumour
[8] = NRG (NOD.Cg-Rag1tm1Mom Il2rgtm1Wjl/SzJ), adrenal glands
[9] = NRG (NOD.Cg-Rag1tm1Mom Il2rgtm1Wjl/SzJ), blood
[10] = NRG (NOD.Cg-Rag1tm1Mom Il2rgtm1Wjl/SzJ), bone
[11] = NRG (NOD.Cg-Rag1tm1Mom Il2rgtm1Wjl/SzJ), brain
[12] = NRG (NOD.Cg-Rag1tm1Mom Il2rgtm1Wjl/SzJ), heart
[13] = NRG (NOD.Cg-Rag1tm1Mom Il2rgtm1Wjl/SzJ), intestine
[14] = NRG (NOD.Cg-Rag1tm1Mom Il2rgtm1Wjl/SzJ), kidneys
[15] = NRG (NOD.Cg-Rag1tm1Mom Il2rgtm1Wjl/SzJ), liver
[16] = NRG (NOD.Cg-Rag1tm1Mom Il2rgtm1Wjl/SzJ), lungs
[17] = NRG (NOD.Cg-Rag1tm1Mom Il2rgtm1Wjl/SzJ), muscle
[18] = NRG (NOD.Cg-Rag1tm1Mom Il2rgtm1Wjl/SzJ), pancreas
[19] = NRG (NOD.Cg-Rag1tm1Mom Il2rgtm1Wjl/SzJ), spleen
[20] = NRG (NOD.Cg-Rag1tm1Mom Il2rgtm1Wjl/SzJ), stomach
[21] = NRG (NOD.Cg-Rag1tm1Mom Il2rgtm1Wjl/SzJ), testes
[22] = NRG (NOD.Cg-Rag1tm1Mom Il2rgtm1Wjl/SzJ), thyroid
[23] = NRG (NOD.Cg-Rag1tm1Mom Il2rgtm1Wjl/SzJ), urine

tissue to tissue ratio at 1 h ([2]; Tumour/blood): 0.69 ± 0.08 | tissue to tissue ratio at 4 h ([2]; Tumour/blood): 2.24 ± 0.36 | tissue to tissue ratio at 24 h ([2]; Tumour/blood): 62.8 ± 26.4 | tissue to tissue ratio at 120 h ([2]; Tumour/blood): 436 ± 64.7 | tissue to tissue ratio at 1 h ([2]; Tumour/muscle): 7.99 ± 1.03 | tissue to tissue ratio at 4 h ([2]; Tumour/muscle): 23.6 ± 4.32 | tissue to tissue ratio at 24 h ([2]; Tumour/muscle): 245 ± 48 | tissue to tissue ratio at 120 h ([2]; Tumour/muscle): 394 ± 42.9 | tissue uptake at 1 h [4, 5]: 2.24 ± 0.49 %ID/g | tissue uptake at 4 h [4, 5]: 1.85 ± 0.53 %ID/g | tissue uptake at 24 h [4, 5]: 0.3 ± 0.07 %ID/g | tissue uptake at 120 h [4, 5]: 0.2 ± 0.08 %ID/g | tissue uptake at 1 h [4, 6]: 1.8 ± 0.79 %ID/g | tissue uptake at 4 h [4, 6]: 0.79 ± 0.13 %ID/g | tissue uptake at 24 h [4, 6]: 0.15 ± 0.07 %ID/g | tissue uptake at 120 h [4, 6]: 0.11 ± 0.06 %ID/g | tissue uptake at 1 h [4, 7]: 13.3 ± 2.94 %ID/g | tissue uptake at 4 h [4, 7]: 24.3 ± 5.04 %ID/g | tissue uptake at 24 h [4, 7]: 29.7 ± 4.29 %ID/g | tissue uptake at 120 h [4, 7]: 19.3 ± 7.95 %ID/g | tissue uptake at 1 h [4, 8]: 5.1 ± 1.69 %ID/g | tissue uptake at 4 h [4, 8]: 3.54 ± 1.01 %ID/g | tissue uptake at 24 h [4, 8]: 1.68 ± 0.93 %ID/g | tissue uptake at 120 h [4, 8]: 1.36 ± 1.56 %ID/g | tissue uptake at 1 h [4, 9]: 19.1 ± 3.57 %ID/g | tissue uptake at 4 h [4, 9]: 10.8 ± 0.87 %ID/g | tissue uptake at 24 h [4, 9]: 0.54 ± 0.24 %ID/g | tissue uptake at 120 h [4, 9]: 0.04 ± 0.01 %ID/g | tissue uptake at 1 h [4, 10]: 1.36 ± 0.32 %ID/g | tissue uptake at 4 h [4, 10]: 0.8 ± 0.24 %ID/g | tissue uptake at 24 h [4, 10]: 0.24 ± 0.15 %ID/g | tissue uptake at 120 h [4, 10]: 0.23 ± 0.09 %ID/g | tissue uptake at 1 h [4, 11]: 0.33 ± 0.1 %ID/g | tissue uptake at 4 h [4, 11]: 0.2 ± 0.01 %ID/g | tissue uptake at 24 h [4, 11]: 0.04 ± 0.02 %ID/g | tissue uptake at 120 h [4, 11]: 0.03 ± 0.02 %ID/g | tissue uptake at 1 h [4, 12]: 4.7 ± 0.7 %ID/g | tissue uptake at 4 h [4, 12]: 2.84 ± 0.4 %ID/g | tissue uptake at 24 h [4, 12]: 0.5 ± 0.2 %ID/g | tissue uptake at 120 h [4, 12]: 0.3 ± 0.13 %ID/g | tissue uptake at 1 h [4, 13]: 2.07 ± 0.42 %ID/g | tissue uptake at 4 h [4, 13]: 1.32 ± 0.2 %ID/g | tissue uptake at 24 h [4, 13]: 0.51 ± 0.52 %ID/g | tissue uptake at 120 h [4, 13]: 0.28 ± 0.11 %ID/g | tissue uptake at 1 h [4, 14]: 11.3 ± 2.81 %ID/g | tissue uptake at 4 h [4, 14]: 11.3 ± 1.38 %ID/g | tissue uptake at 24 h [4, 14]: 8.29 ± 1.94 %ID/g | tissue uptake at 120 h [4, 14]: 3.26 ± 1.6 %ID/g | tissue uptake at 1 h [4, 15]: 7.24 ± 2.38 %ID/g | tissue uptake at 4 h [4, 15]: 6.37 ± 1.33 %ID/g | tissue uptake at 24 h [4, 15]: 4.45 ± 2.6 %ID/g | tissue uptake at 120 h [4, 15]: 3.85 ± 1.63 %ID/g | tissue uptake at 1 h [4, 16]: 11.2 ± 2.91 %ID/g | tissue uptake at 4 h [4, 16]: 6.81 ± 1.45 %ID/g | tissue uptake at 24 h [4, 16]: 1.55 ± 1.22 %ID/g | tissue uptake at 120 h [4, 16]: 2.15 ± 2.57 %ID/g | tissue uptake at 1 h [4, 17]: 1.67 ± 0.35 %ID/g | tissue uptake at 4 h [4, 17]: 1.03 ± 0.06 %ID/g | tissue uptake at 24 h [4, 17]: 0.13 ± 0.04 %ID/g | tissue uptake at 120 h [4, 17]: 0.05 ± 0.02 %ID/g | tissue uptake at 1 h [4, 18]: 1.87 ± 0.3 %ID/g | tissue uptake at 4 h [4, 18]: 1.22 ± 0.08 %ID/g | tissue uptake at 24 h [4, 18]: 0.27 ± 0.13 %ID/g | tissue uptake at 120 h [4, 18]: 0.16 ± 0.07 %ID/g | tissue uptake at 1 h [4, 19]: 3.9 ± 1.66 %ID/g | tissue uptake at 4 h [4, 19]: 2.5 ± 0.5 %ID/g | tissue uptake at 24 h [4, 19]: 1.89 ± 0.85 %ID/g | tissue uptake at 120 h [4, 19]: 4.6 ± 3.88 %ID/g | tissue uptake at 1 h [4, 20]: 0.85 ± 0.29 %ID/g | tissue uptake at 4 h [4, 20]: 0.66 ± 0.12 %ID/g | tissue uptake at 24 h [4, 20]: 1.07 ± 1.42 %ID/g | tissue uptake at 120 h [4, 20]: 1.24 ± 0.65 %ID/g | tissue uptake at 1 h [4, 21]: 2.99 ± 0.56 %ID/g | tissue uptake at 4 h [4, 21]: 2.8 ± 0.12 %ID/g | tissue uptake at 24 h [4, 21]: 0.92 ± 0.26 %ID/g | tissue uptake at 120 h [4, 21]: 0.56 ± 0.25 %ID/g | tissue uptake at 1 h [4, 22]: 5.57 ± 0.79 %ID/g | tissue uptake at 4 h [4, 22]: 5.74 ± 0.74 %ID/g | tissue uptake at 24 h [4, 22]: 5.04 ± 1.22 %ID/g | tissue uptake at 120 h [4, 22]: 5.4 ± 2.58 %ID/g | tissue to tissue ratio at 1 h ([4]; NRG (NOD.Cg-Rag1tm1Mom Il2rgtm1Wjl/SzJ), tumour/kidney, 1 h p.i., NRG mice, SK-MEL-1 melanoma): 1.18 ± 0.11 | tissue to tissue ratio at 4 h ([4]; NRG (NOD.Cg-Rag1tm1Mom Il2rgtm1Wjl/SzJ), tumour/kidney, 4 h p.i., NRG mice, SK-MEL-1 melanoma): 2.14 ± 0.26 | tissue to tissue ratio at 24 h ([4]; NRG (NOD.Cg-Rag1tm1Mom Il2rgtm1Wjl/SzJ), tumour/kidney, 24 h p.i., NRG mice, SK-MEL-1 melanoma): 3.68 ± 0.6 | tissue to tissue ratio at 120 h ([4]; NRG (NOD.Cg-Rag1tm1Mom Il2rgtm1Wjl/SzJ), tumour/kidney, 120 h p.i., NRG mice, SK-MEL-1 melanoma): 6.17 ± 1.09 | excreta dose per gram or mL at 1 h [4, 23]: 214 ± 57.6 %ID/g | excreta dose per gram or mL at 4 h [4, 23]: 258 ± 66.2 %ID/g | excreta dose per gram or mL at 24 h [4, 23]: 21.8 ± 4.6 %ID/g | excreta dose per gram or mL at 120 h [4, 23]: 3.56 ± 1.16 %ID/g
SMILES: CCCC[C@H](NC(=O)CN1CCC(NC(=O)[C@H](CCCCNC(=O)CN2CCN(CC(=O)O)CCN(CC(=O)O)CCN(CC(=O)O)CC2)NC(=O)CNC(=O)CCCc2ccc(-c3ccc(C)cc3)cc2)CC1)C(=O)N[C@H]1CC(=O)NCCCC[C@@H](C(N)=O)N(C)C(=O)[C@H](Cc2c[nH]c3ccccc23)NC(=O)[C@H](CCCNC(=N)N)N(C)C(=O)[C@@H](Cc2ccccc2)NC(=O)[C@H](Cc2c[nH]cn2)NC1=O [^177Lu-labeled CCZ01158, metal not drawn]
Adverse effects [1]: No obvious adverse effects were observed | Overall comparison of tumour uptake and tumour to background contrast [3]: superior due to high and sustained tumour uptake, as well as superior tumour to background contrast
